The values that follow come from ChEMBL document CHEMBL1201862, “PubChem BioAssay data set” (2004).

Common to all, as to experiment: inhibition of tumour cell growth, NCI panel, 48 h
For assay [1], the system named is A549.
Assay [2] deals with CCRF-CEM.
The subject of assay [3] is COLO 205.
The test system of assay [4] is HCC 2998.
The test system of assay [5] is HL-60.
The subject of assay [6] is HT-29.
Assay [7] relates to Hs-578T.
The test system of assay [8] is LOX IMVI.
The subject of assay [9] is M14.
Assay [10] deals with MDA-MB-435.
Assay [11] concerns Malme-3M.
In assay [12] the test system is NCI-H23.
The test system of assay [13] is OVCAR-3.
For assay [14], the system named is OVCAR-4.
Assay [15] concerns OVCAR-5.
In assay [16] the test system is SF-268.
Assay [17] deals with SF-539.
Assay [18] relates to SK-MEL-5.
The subject of assay [19] is SW-620.
Assay [20] relates to T47D.

Each structure is given as a SMILES string.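 Five concentrations, 48 hours, 96-well plates. GI50: concentration for 50% inhibition of growth.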 The source made the active and inactive calls. No stated cut-off is given here; in the data, active = GI50 up to about 1.1 µM and inactive = higher. Where only a bound is given, the exact number is not on record here.

`COC1(OC)C[C@H](C)[C@@]23O[C@]24C2=CC(=O)C=CC2=N[C@H]3C#C/C=C\C#C[C@]14O`: the GI50 was 0.71 µM (active) in [1]; 0.044 µM (active) in assay [2]; 0.541 µM (active) in assay [3]; 0.67 µM (active) in assay [4]; 0.0431 µM (active) in assay [5]; 0.266 µM (active) in assay [6]. For the same compound, the GI50 is 0.904 µM (active) in [7]; 0.3 µM (active) in assay [8]; 0.53 µM (active) in assay [9]; 0.546 µM (active) in [10]; 0.671 µM (active) in assay [11]; 0.411 µM (active) in assay [12]. Besides, the GI50 in assay [13] was 0.431 µM (active); in assay [14], 0.501 µM (active); in assay [15], 0.39 µM (active); in assay [16] it was 0.711 µM (active); in assay [17] it was 0.634 µM (active); in [18], 0.323 µM (active). The GI50 in [19] is 0.415 µM (active); in assay [20], 0.427 µM (active).
For `O=C1/C(=C/c2ccccc2)CCc2ccc([N+](=O)[O-])cc21`, the GI50 was > 100 µM (inactive) in [1]; 4.13 µM (inactive) in assay [2]; > 100 µM (inactive) in [3]; > 88.3 µM (inactive) in [4]; 1.86 µM (inactive) in [5]; > 100 µM (inactive) in [6]. For the same compound, the GI50 in assay [7] is 37.4 µM (inactive); in [8], 21.5 µM (inactive); in [9], 48.2 µM (inactive); in assay [10] it was 40.8 µM (inactive); in assay [11], 46.8 µM (inactive); in assay [12], 34.7 µM (inactive). The GI50 is > 100 µM (inactive) in [13]; 39.5 µM (inactive) in assay [14]; > 100 µM (inactive) in [15]; 30.7 µM (inactive) in assay [16]; 64.3 µM (inactive) in [17]; 25.2 µM (inactive) in [18]. For the same compound, the GI50 in [19] is > 70 µM (inactive); in assay [20], > 51.6 µM (inactive).
`Cc1ccc(/C(=C\C(=O)C(=O)NC23CC4CC(CC(C4)C2)C3)Sc2ccccc2)cc1`: the GI50 was 4.75 µM (inactive) in [2]; 3.5 µM (inactive) in assay [3]; > 10 µM (inactive) in assay [4]; 5.82 µM (inactive) in assay [5]; > 10 µM (inactive) in [6]; > 10 µM (inactive) in assay [7]. Moreover, the GI50 in [8], in [9], in assay [10], in [11], in assay [12] and in assay [13] was > 10 µM (inactive) throughout. The GI50 in assay [14] was 6.43 µM (inactive); in assay [15] it was > 10 µM (inactive); in [16] it was > 10 µM (inactive); in assay [17], > 10 µM (inactive); in assay [18] it was > 10 µM (inactive); in assay [19], > 10 µM (inactive). Also, the GI50 in assay [20] was > 10 µM (inactive).
For `Clc1ccc(/C=C/c2nc(-c3ccc(Cl)cc3)cn3c2nc2ccccc23)cc1`, the GI50 in assay [1], in assay [2], in [3], in [4], in [5] and in assay [6] was > 100 µM (inactive) throughout. For the same compound, the GI50 in [7], in assay [8], in assay [9], in assay [10], in assay [11] and in [12] was > 100 µM (inactive) throughout. The GI50 in [13], in assay [14], in assay [15], in assay [16], in assay [17] and in assay [18] was > 100 µM (inactive) each time. The results for the GI50 in assay [19] and in assay [20] were > 100 µM (inactive) and 88.7 µM (inactive), respectively.
Consider `COC(=O)C1Cc2cc3c(cc2C1)CCC3`, for which the GI50 is > 100 µM (inactive) in [1]; > 100 µM (inactive) in [2]; > 100 µM (inactive) in assay [3]; > 100 µM (inactive) in assay [4]; > 100 µM (inactive) in [5]; 68.9 µM (inactive) in assay [6]. The GI50 in assay [7], in [8], in [9], in assay [10], in assay [11] and in assay [12] was > 100 µM (inactive) in each case. Besides, the GI50 in [13], in [14], in assay [15], in [16], in assay [17] and in [18] was > 100 µM (inactive) each time. Also, the GI50 in assay [19] and in assay [20] was > 100 µM (inactive) in each case.
`CC[C@@]1(O)CC(OC2CC(N3CCOCC3)C(O)C(C)O2)c2c(O)c3c(c(O)c2[C@H]1O)C(=O)c1cccc(O)c1C3=O` (some centres not stated): the GI50 in assay [1] was 0.0267 µM (active); in [2] it was 0.0379 µM (active); in assay [3], 0.0847 µM (active); in assay [4] it was 0.223 µM (active); in [5], 0.0311 µM (active); in assay [6], 0.0902 µM (active). The GI50 in assay [7] was 0.348 µM (active); in assay [8], 0.0644 µM (active); in [9], 0.356 µM (active); in [10], 0.304 µM (active); in [11], 0.0502 µM (active); in [12] it was 0.175 µM (active). Besides, the GI50 in assay [13] was 0.355 µM (active); in [14], 0.231 µM (active); in assay [15], 0.371 µM (active); in [16], 0.122 µM (active); in assay [17], 0.103 µM (active); in assay [18] it was 0.0966 µM (active). Moreover, the GI50 in assay [19] is 0.0469 µM (active); in [20], 0.179 µM (active).
Regarding `COc1cccc(C2c3cc4c(cc3OC(N3CCCCC3)C2C)OCO4)c1O` (configuration not stated), the GI50 in [1] is 6.52 µM (inactive); in assay [2], 2.4 µM (inactive); in [3] it was 4.89 µM (inactive); in [4] it was 10.5 µM (inactive); in assay [5], 2.54 µM (inactive); in [6] it was 3.43 µM (inactive). Also, the GI50 was 3.63 µM (inactive) in [7]; 5.21 µM (inactive) in [8]; 4.2 µM (inactive) in assay [9]; 1.75 µM (inactive) in [10]; 4.53 µM (inactive) in [11]; 7.31 µM (inactive) in assay [12]. Also, the GI50 in assay [13] is 2.93 µM (inactive); in assay [14], 7.38 µM (inactive); in assay [15] it was 17.7 µM (inactive); in [16] it was 9.71 µM (inactive); in assay [17] it was 2.22 µM (inactive); in assay [18], 3.62 µM (inactive). For the same compound, the GI50 is 3.97 µM (inactive) in [19] and 8.38 µM (inactive) in assay [20].
Turning to `OCc1ccc2c(c1)CC1(Cc3ccc(/C=N/O)cc3C1)C2` (configuration not stated), the GI50 in assay [1] was 4.93 µM (inactive); in assay [2], 1.96 µM (inactive); in [3], 3.1 µM (inactive); in assay [4], 1.97 µM (inactive); in [5], 0.41 µM (active); in assay [6] it was 1.89 µM (inactive). Further, the GI50 in assay [7] is 2.45 µM (inactive); in [8], 2.93 µM (inactive); in [9], 1.99 µM (inactive); in assay [10], 0.445 µM (active); in assay [11], 9.1 µM (inactive); in assay [12] it was 3.19 µM (inactive). For the same compound, the GI50 is 2.74 µM (inactive) in assay [13]; 1.92 µM (inactive) in assay [14]; 23.7 µM (inactive) in assay [15]; 13.7 µM (inactive) in assay [16]; 2.72 µM (inactive) in [17]; 1.34 µM (inactive) in assay [18]. Also, the figures for the GI50 in [19] and in assay [20] were 1.68 µM (inactive) and 11.3 µM (inactive), respectively.
Regarding `CN1CCC2(CC1)/C(=N/C1CCCCC1)NC(=S)N2c1ccccc1`, the GI50 in [1], in [2], in assay [3], in assay [4], in [5] and in assay [6] was > 100 µM (inactive) each time. The GI50 in assay [7] was 13.8 µM (inactive); in assay [8] it was > 100 µM (inactive); in [9], > 100 µM (inactive); in assay [10] it was > 100 µM (inactive); in assay [11], > 100 µM (inactive); in assay [12] it was > 100 µM (inactive). Besides, the GI50 in assay [14], in [15], in [16], in assay [17], in assay [18] and in assay [19] was > 100 µM (inactive) each time. The GI50 in [20] is > 100 µM (inactive).
Take `O=[N+]([O-])c1cc(C2ON=C(c3ccccc3)N2C23CC4CC(CC(C4)C2)C3)ccc1Cl` (configuration not stated): the GI50 in assay [1], in [2], in assay [3], in assay [4], in [5] and in [6] was > 100 µM (inactive) throughout. Moreover, the GI50 in [7], in [8], in assay [9], in assay [10], in assay [11] and in [12] was > 100 µM (inactive) throughout. Moreover, the GI50 in assay [13], in assay [14], in assay [15], in assay [16], in [17] and in assay [18] was > 100 µM (inactive) in each case. Further, in assay [20], the GI50 was > 100 µM (inactive).
